From patent US8987445B2, “Sulfonamide compounds having TRPM8 antagonistic activity” (Mitsubishi Tanabe Pharma Corporation, priority 2011, dated 2015) come the findings set out here.

This experiment deals with human TRPM8 (Homo sapiens (Human), UniProt Q7Z2W7). In words: TRPM8 inhibition assay (menthol-induced calcium influx, FDSS). The note with it: HEK293 cells stably expressing human TRPM8; 100 μM menthol; Fura-2AM Ca2+ signal; read-out: TRPM8 Blocking Test (IC50). The experiment is classed as cell-based. As for the experimental part: The functional activity of compounds was determined by measuring changes in intracellular calcium concentration using a Ca^2+ sensitive fluorescent dye. The changes in fluorescent signal were monitored by the cell imaging technology by Hamamatsu Photonics's Functional Drug Screening System (FDSS). […] HEK293 cells stably expressing human TRPM8 were grown in flasks. On assay day, the culture medium was removed, and cells were washed with phosphate-buffered saline (PBS) and harvested with PBS containing 2 mM ethylenediaminetetraacetic acid, disodium salt (EDTA, 2Na). […] Subsequently, suspended 20,000 to 50,000 cells per well were incubated with test compound (at varying concentrations) in each well for 20 min at 37° C. Changes in intracellular Ca^2+ evoked by 100 μM menthol were measured for 2 min using FDSS. IC50 vales were determined from four-point concentration-response studies. Curves were generated using the average of quadruplicate wells for each data point.
Chain of human TRPM8 (Q7Z2W7 whole entry): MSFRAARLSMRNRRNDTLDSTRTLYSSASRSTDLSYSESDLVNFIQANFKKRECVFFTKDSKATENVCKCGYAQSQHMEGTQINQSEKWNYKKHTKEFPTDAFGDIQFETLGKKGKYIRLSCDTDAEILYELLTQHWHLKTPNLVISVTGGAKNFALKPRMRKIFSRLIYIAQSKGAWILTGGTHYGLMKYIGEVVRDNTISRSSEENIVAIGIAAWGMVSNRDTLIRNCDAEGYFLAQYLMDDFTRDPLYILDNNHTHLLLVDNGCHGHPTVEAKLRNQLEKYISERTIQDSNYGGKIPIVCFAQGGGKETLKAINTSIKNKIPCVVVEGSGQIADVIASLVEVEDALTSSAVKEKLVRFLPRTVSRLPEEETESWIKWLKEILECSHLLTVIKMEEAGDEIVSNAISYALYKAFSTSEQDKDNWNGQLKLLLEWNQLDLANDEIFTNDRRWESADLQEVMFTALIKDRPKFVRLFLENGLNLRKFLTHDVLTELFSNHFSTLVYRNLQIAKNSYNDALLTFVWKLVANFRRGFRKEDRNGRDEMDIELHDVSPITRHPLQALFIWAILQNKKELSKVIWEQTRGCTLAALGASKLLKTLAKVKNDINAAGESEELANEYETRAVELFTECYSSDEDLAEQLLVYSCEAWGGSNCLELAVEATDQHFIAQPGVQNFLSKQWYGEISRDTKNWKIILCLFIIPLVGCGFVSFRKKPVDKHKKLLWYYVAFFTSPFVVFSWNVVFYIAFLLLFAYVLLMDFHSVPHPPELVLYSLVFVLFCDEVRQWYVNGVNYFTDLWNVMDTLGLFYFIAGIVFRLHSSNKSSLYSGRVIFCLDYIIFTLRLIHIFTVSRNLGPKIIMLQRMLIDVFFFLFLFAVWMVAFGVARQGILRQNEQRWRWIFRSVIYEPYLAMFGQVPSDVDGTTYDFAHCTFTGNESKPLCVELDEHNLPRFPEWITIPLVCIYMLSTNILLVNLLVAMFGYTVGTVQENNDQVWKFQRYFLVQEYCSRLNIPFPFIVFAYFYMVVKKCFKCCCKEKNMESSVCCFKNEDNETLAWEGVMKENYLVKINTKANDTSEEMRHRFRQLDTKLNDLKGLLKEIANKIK
`Cn1ccc2c(Cl)cnc(N(Cc3ccc(OC(F)(F)F)cc3)S(=O)(=O)c3ccc(C(=O)O)cc3)c21` [Example 6, sodium 4-({(4-chloro-1-methyl-1H-pyrrolo[2,3-c]pyridin-7-yl)[4-(trifluoromethoxy)benzyl]amino}sulfonyl)benzoate]: the IC50 was found to be 0.022 µM.

As for `Cc1c(N(Cc2ccc(-c3ccc(F)cc3)cc2)S(=O)(=O)c2ccc(C(=O)O)cc2)ncc2ccccc12` [Example 8, 4-{[[(4′-fluorobiphenyl-4-yl)methyl](4-methylisoquinolin-3-yl)amino]sulfonyl}benzoic acid], the 50% inhibitory concentration (IC50) was determined as 0.026 µM.

Take `CCOC(C)(c1ccc(CN(c2ncc3ccccc3c2C)S(=O)(=O)c2ccc(C(=O)O)cc2)cc1)C(F)(F)F` (stereo not shown) [Example 14, 4-{[[4-(1-ethoxy-2,2,2-trifluoro-1-methylethyl)benzyl](4-methylisoquinolin-3-yl)amino]sulfonyl}benzoic acid]: the IC50 turned out to be 0.0047 µM.

For `Cc1cc2ccccc2nc1N(Cc1ccc(OC(F)(F)F)cc1)S(=O)(=O)c1ccc(C(=O)O)cc1` [Example 17], the IC50 is 0.005 µM.

Consider `Cc1cc2ccccc2nc1N(Cc1ccc(F)c(C(F)(F)F)c1)S(=O)(=O)c1ccc(C(=O)O)cc1` [Example 20], for which the IC50 is 0.012 µM.

Turning to `Cc1c(N(Cc2ccc(C(C)(C)C)cc2)S(=O)(=O)c2ccc(C(=O)O)cc2)ncc2ccccc12` [Example 23], the IC50 was 0.0018 µM.

Take `Cc1c(N(Cc2ccc(CC3CC3)cc2)S(=O)(=O)c2ccc(C(=O)O)cc2)ncc2ccccc12` [Example 24]: the IC50 worked out at 0.0046 µM.

With `Cc1c(N(Cc2ccc(-c3ccccc3)cc2)S(=O)(=O)c2ccc(C(=O)O)cc2)ncc2ccccc12` [Example 27], the IC50 stood at 0.026 µM.

`Cc1c(N(Cc2ccc(Oc3ccccc3)cc2)S(=O)(=O)c2ccc(C(=O)O)cc2)ncc2ccccc12` [Example 28]: the IC50 was determined as 0.016 µM.

Regarding `Cc1c(N(Cc2cccc3ccccc23)S(=O)(=O)c2ccc(C(=O)O)cc2)ncc2ccccc12` [Example 31], the IC50 is 0.065 µM.

`Cc1c(N(Cc2ccc3ccccc3c2)S(=O)(=O)c2ccc(C(=O)O)cc2)ncc2ccccc12` [Example 32]: the IC50 was 0.0086 µM.

As for `Cc1c(N(Cc2ccc(C3CC3)cc2)S(=O)(=O)c2ccc(C(=O)O)cc2)ncc2ccccc12` [Example 41], the 50% inhibitory concentration (IC50) amounted to 0.012 µM.

On to `Cc1c(N(Cc2ccc(OC3CC3)cc2)S(=O)(=O)c2ccc(C(=O)O)cc2)ncc2ccccc12` [Example 45], for which the IC50 was 0.035 µM.

`Cc1c(N(Cc2ccc(OC3CCCC3)cc2)S(=O)(=O)c2ccc(C(=O)O)cc2)ncc2ccccc12` [Example 46]: the IC50 was found to be 0.017 µM.

`Cc1c(N(Cc2ccc3c(c2)CCCC3)S(=O)(=O)c2ccc(C(=O)O)cc2)ncc2ccccc12` [Example 56]: the IC50 amounted to 0.0047 µM.

`Cc1c(N(Cc2ccc3c(c2)CCC3)S(=O)(=O)c2ccc(C(=O)O)cc2)ncc2ccccc12` [Example 60]: the 50% inhibitory concentration (IC50) was found to be 0.0081 µM.

On to `Cc1c(N(Cc2ccc3c(c2)CCC3(C)C)S(=O)(=O)c2ccc(C(=O)O)cc2)ncc2ccccc12` [Example 61], for which the IC50 stood at 0.0013 µM.

For `Cc1c(N(Cc2ccc3c(c2)CC(C)(C)C3)S(=O)(=O)c2ccc(C(=O)O)cc2)ncc2ccccc12` [Example 62], the IC50 is 0.0083 µM.

For `Cc1c(N(Cc2ccc(C(F)(F)F)cn2)S(=O)(=O)c2ccc(C(=O)O)cc2)ncc2ccccc12` [Example 66], the IC50 worked out at 0.038 µM.

`Cc1c(N(Cc2ccc(-c3ccccc3)cn2)S(=O)(=O)c2ccc(C(=O)O)cc2)ncc2ccccc12` [Example 67]: the IC50 came to 0.067 µM.

Regarding `Cc1c(N(Cc2ccc(-c3ccccc3)nc2)S(=O)(=O)c2ccc(C(=O)O)cc2)ncc2ccccc12` [Example 70], the IC50 worked out at 0.095 µM.

Regarding `Cc1c(N(Cc2ccc3c(c2)CC(C)(C)O3)S(=O)(=O)c2ccc(C(=O)O)cc2)ncc2ccccc12` [Example 80], the IC50 amounted to 0.018 µM.

As to `Cc1c(N(Cc2ccc3c(c2)OC(C)(C)C3)S(=O)(=O)c2ccc(C(=O)O)cc2)ncc2ccccc12` [Example 81], the half-maximal inhibitory concentration (IC50) came out at 0.058 µM.

Regarding `Cc1c(N(Cc2ccc3c(c2)COC3(C)C)S(=O)(=O)c2ccc(C(=O)O)cc2)ncc2ccccc12` [Example 83], the IC50 was determined as 0.01 µM.

Consider `Cc1c(N(CC2CCN(c3ccccc3)CC2)S(=O)(=O)c2ccc(C(=O)O)cc2)ncc2ccccc12` [Example 85], for which the IC50 is 0.079 µM.

As to `Cc1c(N(Cc2ccc(-c3ccccc3F)cc2)S(=O)(=O)c2ccc(C(=O)O)cc2)ncc2ccccc12` [Example 88], the IC50 turned out to be 0.01 µM.

As to `Cc1c(N(Cc2ccc(-c3cccc(F)c3)cc2)S(=O)(=O)c2ccc(C(=O)O)cc2)ncc2ccccc12` [Example 89], the IC50 worked out at 0.015 µM.

As to `COC(C)(c1ccc(CN(c2ncc3ccccc3c2C)S(=O)(=O)c2ccc(C(=O)O)cc2)cc1)C(F)(F)F` (stereo not shown) [Example 96], the half-maximal inhibitory concentration (IC50) was determined as 0.0047 µM.

For `CCCc1nc(N(Cc2ccc(OC(F)(F)F)cc2)S(=O)(=O)c2ccc(C(=O)O)cc2)c(C)c2ccccc12` [Example 97, 4-({(4-methyl-1-propylisoquinolin-3-yl)[4-(trifluoromethoxy)benzyl]amino}sulfonyl)benzoic acid], the IC50 was 0.011 µM.

As for `Cc1c(N(Cc2ccc(OC(F)(F)F)cc2)S(=O)(=O)c2ccc(C(=O)O)cc2)nc(N2CCCC2)c2ccccc12` [Example 99, 4-({(4-methyl-1-pyrrolidin-1-ylisoquinolin-3-yl)[4-(trifluoromethoxy)benzyl]amino}sulfonyl)benzoic acid], the IC50 stood at 0.029 µM.

On to `Cc1c(N(Cc2ccc(OC(F)(F)F)cc2)S(=O)(=O)c2ccc(C(=O)O)cc2)nc(OC(C)C)c2ccccc12` [Example 100, 4-({(1-isopropoxy-4-methylisoquinolin-3-yl)[4-(trifluoromethoxy)benzyl]amino}sulfonyl)benzoic acid], for which the IC50 came out at 0.021 µM.

Regarding `O=C(O)c1ccc(S(=O)(=O)N(Cc2ccc(OC(F)(F)F)cc2)c2cc3c(Cl)cccc3cn2)cc1` [Example 102, 4-({(5-chloroisoquinolin-3-yl)[4-(trifluoromethoxy)benzyl]amino}sulfonyl)benzoic acid], the IC50 was found to be 0.115 µM.

As for `O=C(O)c1ccc(S(=O)(=O)N(Cc2ccc(OC(F)(F)F)cc2)c2ncc3ccccc3c2C2CC2)cc1` [Example 104, 4-({(4-cyclopropylisoquinolin-3-yl)[4-(trifluoromethoxy)benzyl]amino}sulfonyl)benzoic acid], the 50% inhibitory concentration (IC50) was 0.0009 µM.

For the molecule `Cc1c(N(Cc2ccc(OC(F)(F)F)cc2)S(=O)(=O)c2ccc(C(=O)O)cc2)nc(C(F)(F)F)c2ccccc12` [Example 108, 4-({[4-methyl-1-(trifluoromethyl)isoquinolin-3-yl][4-(trifluoromethoxy)benzyl]amino}sulfonyl)benzoic acid], the IC50 stood at 0.021 µM.

Regarding `CC(C)c1nc(N(Cc2ccc(OC(F)(F)F)cc2)S(=O)(=O)c2ccc(C(=O)O)cc2)c(C(F)(F)F)c2ccccc12` [Example 110, 4-({[1-isopropyl-4-(trifluoromethyl)isoquinolin-3-yl][4-(trifluoromethoxy)benzyl]amino}sulfonyl)benzoic acid], the IC50 was 0.0074 µM.

For the molecule `CC(=O)c1c(N(Cc2ccc(OC(F)(F)F)cc2)S(=O)(=O)c2ccc(C(=O)O)cc2)ncc2ccccc12` [Example 112, 4-({(4-acetylisoquinolin-3-yl)[4-(trifluoromethoxy)benzyl]amino}sulfonyl)benzoic acid], the IC50 came to 0.014 µM.

Take `CC(O)c1c(N(Cc2ccc(OC(F)(F)F)cc2)S(=O)(=O)c2ccc(C(=O)O)cc2)ncc2ccccc12` (stereo not shown) [Example 113, 4-({[4-(1-hydroxyethyl)isoquinolin-3-yl][4-(trifluoromethoxy)benzyl]amino}sulfonyl)benzoic acid]: the IC50 amounted to 0.025 µM.

Take `Cc1c(N(Cc2ccc(OC(F)(F)F)cc2)S(=O)(=O)c2ccc(C(=O)O)cc2)nc(C(C)O)c2ccccc12` (stereo not shown) [Example 115, 4-({[1-(1-hydroxyethyl)-4-methylisoquinolin-3-yl][4-(trifluoromethoxy)benzyl]amino}sulfonyl)benzoic acid]: the half-inhibitory concentration (IC50) was found to be 0.097 µM.

Consider `Cc1c(N(Cc2ccc3cc[nH]c3c2)S(=O)(=O)c2ccc(C(=O)O)cc2)ncc2ccccc12` [Example 117, 4-{[(1H-indol-6-ylmethyl)(4-methylisoquinolin-3-yl)amino]sulfonyl}benzoic acid], for which the IC50 was determined as 0.054 µM.

Regarding `Cc1c(N(Cc2ccc3ccn(C)c3c2)S(=O)(=O)c2ccc(C(=O)O)cc2)ncc2ccccc12` [Example 119, 4-{[[(1-methyl-1H-indol-6-yl)methyl](4-methylisoquinolin-3-yl)amino]sulfonyl}benzoic acid], the IC50 turned out to be 0.092 µM.

Consider `Cc1c(N(Cc2ccc3c(Cl)c[nH]c3c2)S(=O)(=O)c2ccc(C(=O)O)cc2)ncc2ccccc12` [Example 121, 4-{[[(3-chloro-1H-indol-6-yl)methyl](4-methylisoquinolin-3-yl)amino]sulfonyl}benzoic acid], for which the IC50 was found to be 0.015 µM.

`Cc1c(N(Cc2ccc3c(Cl)cn(C)c3c2)S(=O)(=O)c2ccc(C(=O)O)cc2)ncc2ccccc12` [Example 122, 4-{[[(3-chloro-1-methyl-1H-indol-6-yl)methyl](4-methylisoquinolin-3-yl)amino]sulfonyl}benzoic acid]: the IC50 turned out to be 0.057 µM.

Regarding `Cc1c(N(Cc2ccc(OC(F)(F)F)cc2)S(=O)(=O)c2ccc(C(N)=O)cc2)ncc2ccccc12` [Example 123, 4-({(4-methylisoquinolin-3-yl)[4-(trifluoromethoxy)benzyl]amino}sulfonyl)benzamide], the IC50 was 0.021 µM.
